Measured values: patent US20100151050A1, “Method for evaluation of compound using RSK1” (priority 2005, published 2010)

System: p53-negative cells (TOV21G-shp53, A549-shp53, MCF7-shp53, U2OS-shp53, dominant negative U2OS-mtp53)
Experiment: Cell viability by MTT assay after RSK1 siRNA lipofection, p53-negative cells
Assay type: cell-based
Conditions: p53-negative cells with siRNA of RSK1, 96 hours
Method: First, as p53-positive cells, prepared were TOV21G, A549, MCF7 and U2OS cells. As p53-negative cells, prepared were TOV21G-shp53, A549-shp53, MCF7-shp53 and U2OS-shp53 by introducing shRNA of p53 into the above-mentioned four types of cells. Further, dominant negative U2OS-mtp53 cells were also prepared by introducing V157Fp53 into U2OS cells.
Next, siRNA of RSK1 was introduced into the above cells according to a lipofection method, and the cells were incubated in a 10% FCS-containing D-MEM medium (10% FCS-containing MacCoy's 5A medium for U2OS cells) in the presence or absence of cisplatin (CDDP) for 96 hours, and then their viability was measured through MTT assay. As the siRNA of RSK1, used was a mixture of the following three sequences.

N.N.[Cl][Pt][Cl] [cisplatin]
effect of cisplatin under RSK1 expression inhibition: enhanced
